Patent US5202315A, “Cephalosporin compounds” (Lucky, Ltd., priority 1989, dated 1993)
Converted amounts (≈) assume the structure as drawn. Where two headings read alike, the source gives them in different places.

Key:
[1] = In-vivo absorbency (plasma concentrations & pharmacokinetic parameters); set-up: species or system SD rat (male); details: plasma, SD male rat, iv 20 mg/kg; for half-life: rat, iv, 20 mg/kg
Text: The blood samples from the femoral vein of the rats were taken every hour after administration, and analyzed by bio-assay(agar well method).
Tested animal: SD male Rat (220~340 g)

[2] = as above; set-up: species or system SD rat (male); details: plasma, SD male rat, iv 20 mg/kg, read-out: Plasma Conc.
Pseudomonas = experiment: Antibacterial activity; format: cell-based; details: statement in words
[3] = tested on: Escherichia coli ATCC 10536; experiment: Antibacterial activity, MIC; format: cell-based; details: ATCC10536, agar two-fold dilution, 37° C., 20 hours
Method in brief: (§1)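 Incubation at 37 °C for 20 h followed inoculation of 2 μl standard strain (10^7 CFU/ml) onto agar carrying the compound. Compound was incorporated into Mueller-Hinton agar as two-fold serial dilutions.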

[4] = tested on: Bacillus cereus ATCC 11778; experiment: Antibacterial activity, MIC; format: cell-based; details: ATCC11778, ATCC 11778, agar two-fold dilution, 37° C., 20 hours, read-out: MIC
Method in brief: as §1

[5] = tested on: Morganella morganii ATCC 8076h; experiment: Antibacterial activity, MIC; format: cell-based; details: ATCC8076H, agar two-fold dilution, 37° C., 20 hours
Method in brief: as §1

[6] = tested on: Shigella flexneri ATCC 11836; experiment: Antibacterial activity, MIC; format: cell-based; details: ATCC11836, agar two-fold dilution, 37° C., 20 hours
Method in brief: as §1

[7] = tested on: Shigella sonnei ATCC 11060; experiment: Antibacterial activity, MIC; format: cell-based; details: ATCC11060, ATCC 11060, agar two-fold dilution, 37° C., 20 hours, read-out: MIC
Method in brief: as §1

[8] = tested on: Citrobacter freundii ATCC 8090; experiment: Antibacterial activity, MIC; format: cell-based; details: ATCC8090, ATCC 8090, agar two-fold dilution, 37° C., 20 hours, read-out: MIC
Method in brief: as §1

[9] = tested on: Streptococcus faecalis ATCC 29212; experiment: Antibacterial activity, MIC; format: cell-based; details: Enterococcus faecalis, ATCC29212; ATCC 29212; agar two-fold dilution, 37° C., 20 hours; read-out: MIC
Method in brief: as §1

[10] = tested on: Staphylococcus aureus ATCC 10537; experiment: Antibacterial activity, MIC; format: cell-based; details: ATCC10537, ATCC 10537, agar two-fold dilution, 37° C., 20 hours, read-out: MIC
Method in brief: as §1

[11] = tested on: Micrococcus luteus ATCC 9341; experiment: Antibacterial activity, MIC; format: cell-based; details: ATCC9341, ATCC 9341, agar two-fold dilution, 37° C., 20 hours, read-out: MIC
Method in brief: as §1

[12] = tested on: Pseudomonas aeruginosa ATCC 10145; experiment: Antibacterial activity, MIC; format: cell-based; details: ATCC10145, ATCC 10145, agar two-fold dilution, 37° C., 20 hours, read-out: MIC
Method in brief: as §1

[13] = tested on: Acinetobacter calcoaceticus ATCC 15473; experiment: Antibacterial activity, MIC; format: cell-based; details: ATCC15473, ATCC 15473, agar two-fold dilution, 37° C., 20 hours, read-out: MIC
Method in brief: as §1

[14] = tested on: Escherichia coli ATCC 25922; experiment: Antibacterial activity, MIC; format: cell-based; details: ATCC25922, agar two-fold dilution, 37° C., 20 hours
Method in brief: as §1

[15] = tested on: Serratia marcescens ATCC 27117; experiment: Antibacterial activity, MIC; format: cell-based; details: ATCC27117, ATCC 27117, agar two-fold dilution, 37° C., 20 hours, read-out: MIC
Method in brief: as §1

[16] = tested on: Enterobacter cloacae ATCC 27508; experiment: Antibacterial activity, MIC; format: cell-based; details: ATCC27508, ATCC 27508, agar two-fold dilution, 37° C., 20 hours, read-out: MIC
Method in brief: as §1

[17] = tested on: Bacillus megaterium ATCC 9885; experiment: Antibacterial activity, MIC; format: cell-based; details: Priestia megaterium, ATCC9885; ATCC 9885; agar two-fold dilution, 37° C., 20 hours; read-out: MIC
Method in brief: as §1

[18] = tested on: Proteus vulgaris ATCC 6059; experiment: Antibacterial activity, MIC; format: cell-based; details: ATCC6059, ATCC 6059, agar two-fold dilution, 37° C., 20 hours, read-out: MIC
Method in brief: as §1

[19] = tested on: Enterobacter aerogenes ATCC 29751; experiment: Antibacterial activity, MIC; format: cell-based; details: Klebsiella aerogenes, ATCC29751; ATCC 29751; agar two-fold dilution, 37° C., 20 hours; read-out: MIC
Method in brief: as §1

[20] = tested on: Pseudomonas aeruginosa ATCC 27853; experiment: Antibacterial activity, MIC; format: cell-based; details: ATCC27853, ATCC 27853, agar two-fold dilution, 37° C., 20 hours, read-out: MIC
Method in brief: as §1

[21] = tested on: Providencia rettgeri ATCC 9250; experiment: Antibacterial activity, MIC; format: cell-based; details: ATCC9250, agar two-fold dilution, 37° C., 20 hours
Method in brief: as §1

[22] = tested on: Proteus mirabilis ATCC 25933; experiment: Antibacterial activity, MIC; format: cell-based; details: ATCC25933, ATCC 25933, agar two-fold dilution, 37° C., 20 hours, read-out: MIC
Method in brief: as §1

[23] = tested on: Pseudomonas aeruginosa ATCC 25619; experiment: Antibacterial activity, MIC; format: cell-based; details: ATCC25619, ATCC 25619, agar two-fold dilution, 37° C., 20 hours, read-out: MIC
Method in brief: as §1

[24] = tested on: Staphylococcus aureus ATCC 6538p; experiment: Antibacterial activity, MIC; format: cell-based; details: ATCC6538P, ATCC 6538p, agar two-fold dilution, 37° C., 20 hours, read-out: MIC
Method in brief: as §1

[25] = tested on: Klebsiella pneumoniae ATCC 10031; experiment: Antibacterial activity, MIC; format: cell-based; details: ATCC10031, ATCC 10031, agar two-fold dilution, 37° C., 20 hours, read-out: MIC
Method in brief: as §1

[26] = tested on: Salmonella typhimurium ATCC 14028; experiment: Antibacterial activity, MIC; format: cell-based; details: Salmonella enterica; ATCC 14028; agar two-fold dilution, 37° C., 20 hours; read-out: MIC
Method in brief: as §1

[27] = tested on: Staphylococcus epidermidis ATCC 12228; experiment: Antibacterial activity, MIC; format: cell-based; details: ATCC12228, ATCC 12228, agar two-fold dilution, 37° C., 20 hours, read-out: MIC
Method in brief: as §1

CC(C)(O/N=C(\C(=O)NC1C(=O)N2C(C(=O)[O-])=C(CSc3nc(N)cc(N)[n+]3N)CS[C@H]12)c1csc(N)n1)C(=O)O (stereo partly shown) [Compound I-15, 7-[(Z)-2-(2-aminothiazol-4-yl)-2-(2-carboxyprop-2-oxyimino)acetamido]-3-(1,4,6-triaminopyrimidinium-2-yl) thiomethyl-3-cephem-4-carboxylate]
concentration at 1 h ([1]; 60 min, read-out: Plasma Conc.): 2400 ng/mL
concentration at 2 h ([1]; 120 min, read-out: Plasma Conc.): 600 ng/mL
AUC ([1]; two compartment model): 43400 ng·h/mL
half-life ([1]; two compartment model, read-out: T1/2 (α)): 3 min
half-life ([1]; two compartment model, read-out: T1/2 (β)): 29 min
concentration at 1 min ([2]; 1 min): 148000 ng/mL
concentration at 2.5 min ([2]; 2.5 min): 104000 ng/mL
concentration at 5 min ([2]; 5 min): 71000 ng/mL
concentration at 10 min ([2]; 10 min): 53000 ng/mL
concentration at 20 min ([2]; 20 min): 22000 ng/mL
concentration at 40 min ([2]; 40 min): 10000 ng/mL
antibacterial activities, especially against Pseudomonas (Pseudomonas): excellent
MIC [3]: 0.063 µg/mL (≈ 0.101 µM)
MIC [4]: 64 µg/mL (≈ 102 µM)
MIC [5]: ≤ 0.008 µg/mL
MIC [6]: 0.031 µg/mL (≈ 0.0496 µM)
MIC [7]: 0.063 µg/mL (≈ 0.101 µM)
MIC [8]: 0.063 µg/mL (≈ 0.101 µM)
MIC [9]: > 128 µg/mL
MIC [10]: 2 µg/mL (≈ 3.2 µM)
MIC [11]: 0.25 µg/mL (≈ 0.4 µM)
MIC [12]: 1 µg/mL (≈ 1.6 µM)
MIC [13]: 2 µg/mL (≈ 3.2 µM)
MIC [14]: 0.063 µg/mL (≈ 0.101 µM)
MIC [15]: 0.063 µg/mL (≈ 0.101 µM)
MIC [16]: 0.016 µg/mL (≈ 0.0256 µM)
MIC [17]: 0.5 µg/mL (≈ 0.8 µM)
MIC [18]: 0.016 µg/mL (≈ 0.0256 µM)
MIC [19]: 1 µg/mL (≈ 1.6 µM)
MIC [20]: 1 µg/mL (≈ 1.6 µM)
MIC [21]: ≤ 0.008 µg/mL
MIC [22]: 0.016 µg/mL (≈ 0.0256 µM)
MIC [23]: 1 µg/mL (≈ 1.6 µM)
MIC [24]: 4 µg/mL (≈ 6.4 µM)
MIC [25]: 0.063 µg/mL (≈ 0.101 µM)
MIC [26]: 0.13 µg/mL (≈ 0.208 µM)
MIC [27]: 2 µg/mL (≈ 3.2 µM)
